pEC50, pKi: −log10 of the molar value.
Tests used:
[1] = biological target: T1, Adenosine receptor A2b (Homo sapiens, UniProt P29275); assay: Agonist activity at human adenosine A2B receptor expressed in CHO cells by cyclic AMP functional assay; assay type: cell-based
T1 sequence (P29275 whole entry): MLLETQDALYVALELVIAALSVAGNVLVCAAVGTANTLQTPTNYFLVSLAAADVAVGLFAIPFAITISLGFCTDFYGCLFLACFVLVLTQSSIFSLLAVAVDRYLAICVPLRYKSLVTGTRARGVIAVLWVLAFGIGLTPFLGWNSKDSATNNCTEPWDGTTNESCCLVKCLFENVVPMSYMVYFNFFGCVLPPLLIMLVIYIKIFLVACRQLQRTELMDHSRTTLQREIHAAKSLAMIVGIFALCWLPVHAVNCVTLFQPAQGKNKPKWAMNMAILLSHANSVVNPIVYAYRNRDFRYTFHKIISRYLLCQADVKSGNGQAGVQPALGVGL

[2] = biological target: T2, Adenosine receptor A2a (Homo sapiens, UniProt P29274); assay: Agonist activity at human adenosine A2A receptor expressed in CHO cells by cyclic AMP functional assay; assay type: cell-based
[3] = biological target: T2, Adenosine receptor A2a; assay: Displacement of [3H]CGS21680 from human adenosine A2A receptor in HEK293 cells at 10 uM; assay type: cell-based
[4] = biological target: T3, Adenosine receptor A1 (Homo sapiens) (UniProt P30542); assay: Displacement of [3H]CCPA from human adenosine A1 receptor expressed in CHO cells at 10 uM; assay type: cell-based
T3 sequence (whole entry): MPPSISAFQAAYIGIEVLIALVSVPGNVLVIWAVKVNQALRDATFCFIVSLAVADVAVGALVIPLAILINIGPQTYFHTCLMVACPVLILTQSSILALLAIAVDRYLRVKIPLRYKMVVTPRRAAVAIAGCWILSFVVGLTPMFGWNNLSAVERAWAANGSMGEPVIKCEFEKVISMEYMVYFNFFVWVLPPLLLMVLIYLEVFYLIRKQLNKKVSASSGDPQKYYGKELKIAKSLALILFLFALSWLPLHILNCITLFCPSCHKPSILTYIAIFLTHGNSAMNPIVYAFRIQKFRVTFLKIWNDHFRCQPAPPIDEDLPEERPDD

[5] = biological target: T4, Adenosine receptor A3 (Homo sapiens) (UniProt P0DMS8); assay: Antagonistic activity at human adenosine A3 receptor expressed in CHO cells assessed as inhibition of Cl-IB-MECA mediated cyclic AMP production by Schild assay; assay type: functional, cell-based
T4 sequence (whole entry): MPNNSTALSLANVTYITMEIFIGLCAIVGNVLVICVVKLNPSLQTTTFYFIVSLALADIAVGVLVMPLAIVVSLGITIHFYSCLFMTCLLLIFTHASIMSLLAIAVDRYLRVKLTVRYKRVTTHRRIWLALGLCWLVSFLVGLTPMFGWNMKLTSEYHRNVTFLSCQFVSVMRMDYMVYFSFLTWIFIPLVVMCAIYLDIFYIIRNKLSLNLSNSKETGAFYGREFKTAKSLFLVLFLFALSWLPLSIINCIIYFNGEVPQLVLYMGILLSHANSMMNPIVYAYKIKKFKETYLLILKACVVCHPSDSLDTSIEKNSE

[6] = biological target: T5, Adenosine receptor A3 (Homo sapiens, UniProt P0DMS8); assay: Displacement of [125I]I-AB-MECA from human adenosine A3 receptor expressed in CHO cells […]; assay type: cell-based
T5 sequence (P0DMS8 whole entry): T4 sequence (whole entry)

[7] = biological target: T2, Adenosine receptor A2a; assay: Displacement of [3H]CGS21680 from human adenosine A2A receptor in HEK293 cells; assay type: cell-based

T2 sequence (P29274 whole entry): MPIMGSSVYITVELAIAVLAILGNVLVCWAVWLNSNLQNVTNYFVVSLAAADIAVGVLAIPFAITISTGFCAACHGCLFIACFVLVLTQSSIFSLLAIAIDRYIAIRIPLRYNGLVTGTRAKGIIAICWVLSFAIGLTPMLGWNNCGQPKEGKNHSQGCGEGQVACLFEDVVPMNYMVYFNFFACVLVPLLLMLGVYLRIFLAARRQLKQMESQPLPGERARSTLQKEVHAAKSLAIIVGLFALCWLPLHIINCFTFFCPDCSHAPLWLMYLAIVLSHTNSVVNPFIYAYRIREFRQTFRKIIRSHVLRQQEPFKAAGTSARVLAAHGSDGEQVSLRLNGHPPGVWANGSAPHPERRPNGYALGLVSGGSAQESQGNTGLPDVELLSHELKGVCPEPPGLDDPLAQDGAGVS

For `CCCCC#Cc1nc(N)c2ncn([C@@H]3SC[C@@H](O)[C@H]3O)c2n1`, the pEC50 [1] was 5.00, the pEC50 [2] was 7.92 and the inhibition [3] was 97.2%. It also gave an inhibition [4] of 38.9% and a Kb [5] of 1.69 nM.

`CCCCC#Cc1nc2c(N)ncnc2n1[C@@H]1SC[C@@H](O)[C@H]1O` showed an inhibition [3] of 46.5%, an inhibition [4] of 49.3% and a pKi [6] of 7.70.

Molecule `CCCC/C=C/c1nc2c(N)ncnc2n1[C@@H]1SC[C@@H](O)[C@H]1O` has an inhibition [3] of 22.8%, an inhibition [4] of 3.7% and a pKi [6] of 6.59.

`CCCC/C=C/c1nc(N)c2ncn([C@@H]3SC[C@@H](O)[C@H]3O)c2n1` gave an inhibition [3] of 95.9%, an inhibition [4] of 16.2% and a pKi [6] of 7.88. It also gave a pKi [7] of 7.14.
